{"source": "patent US20230364074A1", "about": "“Compounds and Compositions for Disrupting Programmed Ribosomal Frameshifting” (YALE UNIVERSITY, priority 2020, published 2023)", "key": {"[1]": {"test_system": "SARS-CoV-2 FSE (−1 PRF)", "assay": "cells", "assay_type": "cell-based", "conditions": "for inhibition at 10 µM / activation at 10 µM: Severe acute respiratory syndrome coronavirus 2, HEK-293T, 24 h; for inhibition at 10 µM: read-out: PERCENT EFFECT 2 (Decreased GFP/Red ratio); for activation at 10 µM: read-out: PERCENT EFFECT (Increased GFP/Red Ratio)"}, "[2]": {"test_system": "−1 PRF of SARS-CoV-2", "assay": "microbe, parasite or virus in culture", "assay_type": "cell-based", "conditions": "for validated effect on −1 PRF in dual luciferase-based PRF reporter assay: repurchased screen candidates"}, "[3]": {"test_system": "HEK293T cells", "assay": "Cell viability in the high-throughput screen (cell nuclei numbers)", "conditions": "10 μM compound, cell nuclei numbers", "procedure": "HEK293T cells were plated in 384 well plates at the density of 5,000 cells/well. Cells were treated by 10 μM candidate compounds 30 min before transfection of 15 ng mCherry-FSE-GFP(−1) plasmid DNA in each well. 24 hours after transfection, cell nuclei were stained with Hoechst dye. Cell nuclei, mCherry, and GFP signals were imaged using an automated fluorescent microscope with a 10x objective, and the acquired images were quantified using the CellProfiler image analysis package. Cell nuclei numbers were quantified as the metric for cell viability. Mean GFP and RFP intensity values were measured in all transfected cells, and GFP/mCherry mean intensity ratios were quantified as the metric for PRF efficiency. The mCherry-GFP fusion plasmid and the mCherry-FSE-GFP(0) plasmid were used as positive and negative controls for elevated and reduced GFP/mCherry ratios, respectively."}, "[4]": {"test_system": "−1 PRF in SARS-CoV-2", "conditions": "prior art statement; cited from earlier work"}, "[5]": {"test_system": "HEK293T cells", "assay_type": "cell-based"}, "[6]": {"test_system": "SARS-CoV-2", "assay": "Viral plaque assay, SARS-CoV-2 in Vero E6 cells", "assay_type": "cell-based", "conditions": "Severe acute respiratory syndrome coronavirus 2, Vero C1008"}, "[7]": {"test_system": "Vero E6 cells", "conditions": "Vero E6 cells (FIG. 6B)"}, "[8]": {"test_system": "HCoV-OC43", "assay": "Viral plaque assay, HCoV-OC43 in MA104 cells", "assay_type": "cell-based", "conditions": "MA104 cells (FIGS. 6G-6H)", "procedure": "Plaque formation assays for SARS-CoV-2, HCoV-229E, and HCoV-OC43 were performed in Vero E6, HuH-7.5, and MA104 cells (ATCC), respectively. Briefly, cells were seeded at 2-4×10^5 cells/well in 12-well plates. The following day, cells were incubated with viral stock (multiplicity of infection [MOI]=0.05) for 1 h and washed twice with PBS. Merafloxacin diluted in DMSO was added to the media, mixed briefly, and incubated at 37° C. After 2 d, media were collected, centrifuged, and supernatants were stored at −80° C. To quantify viral titers, the collected media were first serially diluted 10-fold with fresh media. Two hundred microliters of each dilution were added to near-confluent cells in six-well plates and incubated at 37° C. for 1 h with gentle rocking. Subsequently, overlay media (DMEM, 2% FBS, 0.6% Avicel RC-581) was added to each well. After 3 d, cells were fixed with 10% formaldehyde for 30 min, stained with crystal violet for 30 min, and rinsed with deionized water to visualize plaques."}, "[9]": {"test_system": "−1 PRF of hCoV-NL63", "assay_type": "cell-based", "conditions": "20 μM merafloxacin (FIG. 2E)"}, "[10]": {"test_system": "SARS-CoV-2 nsp12 / nsp8", "assay_type": "cell-based"}, "[11]": {"test_system": "−1 PRF of human PEG10 mRNA", "assay_type": "cell-based"}, "[12]": {"test_system": "−1 PRF of hCoV-229E", "assay_type": "cell-based", "conditions": "20 μM merafloxacin (FIG. 2E)"}, "[13]": {"test_system": "−1 PRF of HIV-1", "assay_type": "cell-based, human immunodeficiency virus 1 (HIV-1)"}, "[14]": {"test_system": "−1 PRF of HCoV-HKU1", "assay": "cells", "assay_type": "cell-based", "conditions": "read-out: IC50 of −1 PRF inhibition, HCoV-HKU1"}, "[15]": {"test_system": "−1 PRF of SARS-CoV", "assay": "microbe, parasite or virus in culture", "assay_type": "cell-based", "conditions": "Severe acute respiratory syndrome coronavirus, read-out: IC50 of −1 PRF inhibition, SARS-CoV"}, "[16]": {"test_system": "two-stem pseudoknot FSE of IBV", "assay_type": "cell-based, avian coronavirus infectious bronchitis virus (IBV)", "conditions": "20 μM merafloxacin (FIG. 2E)"}, "[17]": {"test_system": "−1 PRF of HCoV-OC43", "assay": "microbe, parasite or virus in culture", "assay_type": "cell-based", "conditions": "Betacoronavirus 1, OC43, read-out: IC50 of −1 PRF inhibition, HCoV-OC43"}, "[18]": {"test_system": "HEK293T cells", "conditions": "HEK293T (FIG. 2N)"}, "[19]": {"test_system": "HIV-1 (NL4-3-dNef-GFP)", "assay": "HIV-1 antiviral assay in Jurkat T cells", "assay_type": "cell-based", "conditions": "Jurkat T cells (FIG. 7)"}, "[20]": {"test_system": "−1 PRF of WNV", "assay_type": "cell-based, west nile virus (WNV)"}, "[21]": {"test_system": "−1 PRF of EAV", "assay_type": "cell-based, equine arteritis virus (EAV)"}}, "data": [{"compound": "IVERMECTIN", "values": [{"measurement": "PERCENT EFFECT 2 (Decreased GFP/Red ratio)", "setting": "[1]", "result": "−36.2", "unit": "%"}, {"measurement": "PERCENT EFFECT (Increased GFP/Red Ratio)", "setting": "[1]", "result": 15.8, "unit": "%"}, {"measurement": "validated effect on −1 PRF in dual luciferase-based PRF reporter assay", "setting": "[2]", "result": "enhancer"}, {"measurement": "PERCENT VIABILITY", "setting": "[3]", "result": 223.0, "unit": "%"}]}, {"compound": "N[C@@H]1[C@H]2CN(c3nc4c(cc3F)c(=O)c(C(=O)O)cn4-c3ccc(F)cc3F)C[C@@H]12", "note": "[trovafloxacin]", "values": [{"measurement": "activity on SARS-CoV-2 PRF efficiency, compared with merafloxacin", "setting": "[2]; final concentration of 20 μM (FIGS. 3A and 3B)", "result": "less active"}]}, {"compound": "CCOC(=O)c1ccccc1NC(=O)N1CCCN(Cc2csc(C)n2)CC1", "note": "[MTDB]", "values": [{"measurement": "inhibition of −1 PRF in SARS-CoV-2 reporter assays", "setting": "[4]", "result": "inhibit −1 PRF"}]}, {"compound": "CCNCC1CCN(c2c(F)cc3c(=O)c(C(=O)O)cn(CC)c3c2F)C1", "note": "(stereo not drawn) [merafloxacin, 1-ethyl-7-[3-(ethylaminomethyl)pyrrolidin-1-yl]-6,8-difluoro-4-oxoquinoline-3-carboxylic acid]", "values": [{"measurement": "effect on upstream FLuc translation", "setting": "[5]; 20 μM merafloxacin (FIG. 2F)", "result": "did not affect"}, {"measurement": "effect on ribosome association of the reporter mRNA", "setting": "[5]; 80 μM merafloxacin (FIG. 2H)", "result": "did not affect"}, {"measurement": "effect on global translation (polysome profiles)", "setting": "[5]; 80 μM merafloxacin for 24 hours (FIG. 2G)", "result": "did not affect"}, {"measurement": "effect on reporter mRNA abundance", "setting": "[5]; FIG. 2M", "result": "did not affect"}, {"measurement": "EC50", "setting": "[6]; read-out: EC50 of SARS-CoV-2 replication", "result": 2.6, "unit": "µM"}, {"measurement": "EC90", "setting": "[6]; read-out: EC90 of SARS-CoV-2 replication", "result": 12, "unit": "µM"}, {"measurement": "cytotoxicity", "setting": "[7]", "result": "without causing substantial cytotoxicity"}, {"measurement": "inhibition at 10 µM", "setting": "[1]", "result": 25, "unit": "%"}, {"measurement": "activation at 10 µM", "setting": "[1]", "result": -13, "unit": "%"}, {"measurement": "antiviral activity against HCoV-OC43", "setting": "[8]", "result": "showed antiviral activity"}, {"measurement": "activity against −1 PRF of hCoV-NL63", "setting": "[9]", "result": "much weaker activity"}, {"measurement": "relative abundance between nsp12 and nsp8", "setting": "[10]", "result": "substantially reduced"}, {"measurement": "IC50", "setting": "[2]; Severe acute respiratory syndrome coronavirus 2, dose-dependent, FIG. 2C, read-out: IC50 of −1 PRF inhibition, SARS-CoV-2", "result": "~20", "unit": "µM"}, {"measurement": "−1 PRF of in vitro-transcribed SARS-CoV-2 reporter mRNAs", "setting": "[2]; in vitro transcribed RNAs (FIG. 2O)", "result": "inhibited"}, {"measurement": "validated effect on −1 PRF in dual luciferase-based PRF reporter assay", "setting": "[2]", "result": "inhibitor"}, {"measurement": "inhibition of −1 PRF of human PEG10 mRNA", "setting": "[11]", "result": "did not inhibit"}, {"measurement": "activity against −1 PRF of hCoV-229E", "setting": "[12]", "result": "much weaker activity"}, {"measurement": "inhibition of −1 PRF of HIV-1", "setting": "[13]", "result": "did not inhibit"}, {"measurement": "PERCENT VIABILITY", "setting": "[3]", "result": 168.57, "unit": "%"}, {"measurement": "IC50", "setting": "[14]", "result": 30, "unit": "µM"}, {"measurement": "IC50", "setting": "[15]", "result": "~20", "unit": "µM"}, {"measurement": "sensitivity of IBV FSE", "setting": "[16]", "result": "largely insensitive"}, {"measurement": "IC50", "setting": "[17]", "result": 39, "unit": "µM"}, {"measurement": "effect on cell viability", "setting": "[18]", "result": "did not affect"}, {"measurement": "antiviral activity against an HIV-1 reporter virus", "setting": "[19]", "result": "no antiviral activity"}, {"measurement": "inhibition of −1 PRF of WNV", "setting": "[20]", "result": "did not inhibit"}, {"measurement": "inhibition of −1 PRF of EAV", "setting": "[21]", "result": "did not inhibit"}]}, {"compound": "C[C@H]1O[C@@H](O[C@H]2[C@@H](O)C[C@H](O[C@H]3[C@@H](O)C[C@H](O[C@H]4CC[C@@]5(C)[C@H](CC[C@@H]6[C@@H]5CC[C@]5(C)[C@@H](C7=CC(=O)OC7)CC[C@]65O)C4)O[C@@H]3C)O[C@@H]2C)C[C@H](O)[C@@H]1O", "note": "[digitoxin]", "values": [{"measurement": "inhibition at 10 µM", "setting": "[1]", "result": -34.2, "unit": "%"}, {"measurement": "activation at 10 µM", "setting": "[1]", "result": 16.8, "unit": "%"}, {"measurement": "PERCENT VIABILITY", "setting": "[3]", "result": 6.9, "unit": "%"}]}, {"compound": "C[C@H]1O[C@@H](n2cc(F)c(=O)[nH]c2=O)[C@H](O)[C@@H]1O", "note": "[DOXIFLURIDINE]", "values": [{"measurement": "inhibition at 10 µM", "setting": "[1]", "result": -31.7, "unit": "%"}, {"measurement": "activation at 10 µM", "setting": "[1]", "result": 17.1, "unit": "%"}, {"measurement": "PERCENT VIABILITY", "setting": "[3]", "result": 382.9, "unit": "%"}]}]}
